The subject of test [1] is human lung mast cells. The test is described as follows: Histamine release assay in cultured human lung mast cells. Particulars: agent alone on cultured human lung mast cells. It counts as cell-based. The protocol: Release of histamine in response to various stimuli was also examined.
Mast cells (10-50×10^3/tube) in PAGCM were preincubated at 37° C. then challenged with buffer or anti-FcεRI in doubling dilutions. In experiments examining the effects of beta-agonist and purinergic agonists, agents were added to cells at 37° C. for 15 minutes prior to FcεRI-mediated challenge. Twenty minutes following challenge, cells were rapidly pelleted and supernatants removed for histamine analysis. Histamine release was expressed as the net histamine released divided by the total histamine content ×100%. The total cellular histamine content was determined following cell lysis with 2% perchloric acid. […] Histamine measurements were performed using the automated spectrofluorometric method of Technicon (Tarrytown, N.Y.). […] All assays were run in duplicates.

Test [2] relates to freshly isolated human lung mast cells. The following applies: cited from earlier work.
The test system of test [3] is cord-blood precursor-derived mast cells. Particulars: cited from earlier work.
Test [4] relates to human lung mast cell cultures. The experiment in a line: Beta-receptor responsiveness: inhibition of histamine release. It counts as cell-based. The following applies: cultured human lung mast cells, agents added 15 minutes prior to FcεRI-mediated challenge. The protocol: Beta-receptor responsiveness of human lung mast cell cultures of the present invention were also examined using the prototype agonist, isoproterenol, as well as with the long-acting beta agonist, salmeterol.
Mast cells (10-50×10^3/tube) in PAGCM were preincubated at 37° C. then challenged with buffer or anti-FcεRI in doubling dilutions. In experiments examining the effects of beta-agonist and purinergic agonists, agents were added to cells at 37° C. for 15 minutes prior to FcεRI-mediated challenge. Twenty minutes following challenge, cells were rapidly pelleted and supernatants removed for histamine analysis. Histamine release was expressed as the net histamine released divided by the total histamine content ×100%. The total cellular histamine content was determined following cell lysis with 2% perchloric acid. Spontaneous histamine release was always <2% of cellular histamine and generally <1%. Histamine measurements were performed using the automated spectrofluorometric method of Technicon (Tarrytown, N.Y.). Variations between replicates were consistently <5%. All assays were run in duplicates.

In test [5] the test system is human lung mast cells. The test is described as follows: Proliferation assay using 3H-thymidine uptake. Type of test: cell-based. The following applies: for effect on proliferation when added to medium containing stem cell factor and interleukin-4: added on top of stem cell factor and interleukin-4. The protocol: Uptake of ^3H-thymidine was also monitored as a measure of survival and proliferation of human lung mast cell cultures of the present invention in the presence of different cytokine growth factors. In these experiments, ^3H-thymidine was added to human lung mast cell aliquots from three individuals at 5 through 7 weeks of culture. […] In the absence of stem cell factor, cells died within 3-5 days. Medium with stem cell factor alone produced a 60% increase in uptake. Medium to which stem cell factor and interleukin-4 were added produced a greater than 4-fold increase in proliferation versus stem cell factor alone.
At days 35-49, when cultures contained >95-99% mast cells, 2×10^4 mast cells in 50 μl culture medium were placed in triplicate in 96 well flat-bottomed plates and ^3H-thymidine (0.5 μCi/50 μl/well) added. After four days, cells were harvested on a glass fiber filter, washed ×3, and radioactive uptake was evaluated by a beta counter. Since the cultures contained virtually homogeneous populations, the counts reflected mast cell proliferation and not that of cellular contaminants. The results were expressed as the percent increase in radioactivity over mast cell cultured in medium alone.

In test [6] the test system is mast cells from CD34 positive precursor stem cells. Particulars: added to precursor-derived mast cell culture system; cited from earlier work.

Ends that are not written are not given here.

As for `CNc1ccc2oc(C[C@H]3O[C@@]4(CC[C@H]3C)O[C@H]([C@H](C)C(=O)c3ccc[nH]3)[C@H](C)C[C@H]4C)nc2c1C(=O)O` [A23187], in test [1], the “histamine release, in words” value is “in similar fashion to freshly isolated human lung mast cells”.

Take `Nc1ncnc2c1ncn2[C@@H]1O[C@H](COP(=O)(O)OP(=O)(O)OP(=O)(O)O)[C@@H](O)[C@H]1O` [ATP]: the “histamine release, in words” value in test [1] was “neither ATP nor UTP alone triggered appreciable histamine release”. `Nc1ncnc2c1ncn2[C@@H]1O[C@H](CO)[C@@H](O)[C@H]1O` [Adenosine, adenosine]: the “effect on anti-IgE-induced histamine release” value in test [2] was “enhancement of anti-IgE-induced release”. For the same molecule, in test [3], the “effect on IgE-mediated histamine release” value was “inhibits IgE-mediated histamine release”. Turning to `O=c1ccn([C@@H]2O[C@H](COP(=O)(O)OP(=O)(O)OP(=O)(O)O)[C@@H](O)[C@H]2O)c(=O)[nH]1` [UTP, uridine 5′ triphosphate], the “histamine release, in words” value in test [1] is on record as “neither ATP nor UTP alone triggered appreciable histamine release”. As a reminder, the IC50 is the point on the concentration scale where inhibition reaches its midpoint. A lower IC50 goes with greater potency. Take `CC(C)NCC(O)c1ccc(O)c(O)c1` (stereo not shown) [isoproterenol]: in test [4], the IC50 amounted to 90 pM. In other words, the picomolar range.

In test [4], `OCc1cc(C(O)CNCCCCCCOCCCCc2ccccc2)ccc1O` (stereo not shown) [salmeterol] showed an IC50 of 100 pM. Take “interferon-y: cytokine added to culture medium containing stem cell factor and interleukin-4”: in test [5], the “effect on proliferation when added to medium containing stem cell factor and interleukin-4” value was “marked reduction in proliferation”. Regarding interleukin-9: cytokine growth factor, the “effect on proliferation when added to medium containing stem cell factor and interleukin-4” value in test [5] was “even greater enhancement in proliferation”. “stem cell factor: cytokine growth factor added to the culture medium”: the “increase in 3H-thymidine uptake” value in test [5] (medium with stem cell factor alone, over medium alone) was 60%. With “substance P (RPKPQQFFGLM; ends and bridges not checked; UniProt P20366 58-68, looked up)”, the “histamine release, in words” value in test [1] was “failed to provoke histamine release”.

B1: interleukin-4: cytokine growth factor; the cytokine that most defines allergic immunity (protein, UniProt P05112 25-153, looked up)
Interleukin-4: HKCDITLQEIIKTLNSLTEQKTLCTELTVTDIFAASKNTTEKETFCRAATVLRQFYSHHEKDTRCLGATAQQFHRHKQLIRFLKRLDRNLWGLAGLNSCPVKEANQSTLENFLERLKTIMREKYSKCSS
B1: the “programmed cell death (apoptosis)” value in test [6] is listed as “induces programmed cell death (apoptosis)”. The “proliferation (3H-thymidine uptake)” value in test [5] (interleukin-4 added in the absence of stem cell factor, 5 through 7 weeks of culture) is listed as “no proliferation in excess of that seen in culture medium alone”.

Values taken from patent US7524679B2, “Methods for culturing human lung mast cells and uses thereof” (Philadelphia, Health and Education Corporation, priority 2001, dated 2009).
